Experimental data published in the supplement of paper PMC13380429.

Assays:
Conditions in all cases: 72 h
HepG2 [1] = assay: relative viability EC50 (midpoint between 100% and the lowest measured viability); higher = less toxic
Calu-3 [2] = assay: as above
U2OS [3] = assay: as above
Caco-2 [4] = assay: as above
Vero E6 [5] = assay: as above
HepG2 [6] = assay: cell viability relative to DMSO; higher = less toxic
Calu-3 [7] = assay: as above
U2OS [8] = assay: as above
Caco-2 [9] = assay: as above
Vero E6 [10] = assay: as above
HepG2 [11] = assay: drug sensitivity score (DSS) for viability; higher = more toxic; extreme values may be limits of the assay
Calu-3 [12] = assay: as above
U2OS [13] = assay: as above
Caco-2 [14] = assay: as above
Vero E6 [15] = assay: as above

| SMILES | relative viability EC50 (HepG2 [1]) [µM] | relative viability EC50 (Calu-3 [2]) [µM] | relative viability EC50 (U2OS [3]) [µM] | relative viability EC50 (Caco-2 [4]) [µM] | relative viability EC50 (Vero E6 [5]) [µM] | cell viability (HepG2 [6]; 1 nM) [%] | cell viability (HepG2 [6]; 10 nM) [%] | cell viability (HepG2 [6]; 100 nM) [%] | cell viability (HepG2 [6]; 1000 nM) [%] | cell viability (HepG2 [6]; 10000 nM) [%] | cell viability (Calu-3 [7]; 1 nM) [%] | cell viability (Calu-3 [7]; 10 nM) [%] | cell viability (Calu-3 [7]; 100 nM) [%] | cell viability (Calu-3 [7]; 1000 nM) [%] | cell viability (Calu-3 [7]; 10000 nM) [%] | cell viability (U2OS [8]; 1 nM) [%] | cell viability (U2OS [8]; 10 nM) [%] | cell viability (U2OS [8]; 100 nM) [%] | cell viability (U2OS [8]; 1000 nM) [%] | cell viability (U2OS [8]; 10000 nM) [%] | cell viability (Caco-2 [9]; 1 nM) [%] | cell viability (Caco-2 [9]; 10 nM) [%] | cell viability (Caco-2 [9]; 100 nM) [%] | cell viability (Caco-2 [9]; 1000 nM) [%] | cell viability (Caco-2 [9]; 10000 nM) [%] | cell viability (Vero E6 [10]; 1 nM) [%] | cell viability (Vero E6 [10]; 10 nM) [%] | cell viability (Vero E6 [10]; 100 nM) [%] | cell viability (Vero E6 [10]; 1000 nM) [%] | cell viability (Vero E6 [10]; 10000 nM) [%] | drug sensitivity score (HepG2 [11]) | drug sensitivity score (Calu-3 [12]) | drug sensitivity score (U2OS [13]) | drug sensitivity score (Caco-2 [14]) | drug sensitivity score (Vero E6 [15]) |
| --- | --- | --- | --- | --- | --- | --- | --- | --- | --- | --- | --- | --- | --- | --- | --- | --- | --- | --- | --- | --- | --- | --- | --- | --- | --- | --- | --- | --- | --- | --- | --- | --- | --- | --- | --- |
| CNCCC=C1c2ccccc2C=Cc2ccccc21 [norcyclobenzaprine] | > 10 | > 10 | > 10 | > 10 | > 10 | 94.7 | 93.4 | 102 | 98.3 | 89.3 | 109 | 96.6 | 103 | 105 | 84.8 | 102 | 98.1 | 100 | 106 | 100 | 94.2 | 96.4 | 97.7 | 102 | 90.5 | 95.9 | 97.5 | 92.6 | 94.5 | 95.2 | 0 | 0.1 | 0 | 0 | 0 |
| C[C@@H]1CC(=O)c2c(ccc3c2C(=O)c2cccc(O)c2C3=O)C1 [ochromycinone] | > 10 | > 10 | > 10 | > 10 | > 10 | 87.4 | 91 | 96.6 | 96.5 | 76 | 100 | 104 | 103 | 104 | 92.8 | 101 | 100 | 93.9 | 99.7 | 99.9 | 107 | 96.1 | 99.6 | 110 | 112 | 100 | 100 | 104 | 93.3 | 85.8 | 1.4 | 0 | 0 | 0 | 0.6 |
| O=C(O)CCc1nc(-c2ccccc2)c(-c2ccccc2)o1 [oxaprozin] | > 10 | > 10 | > 10 | > 10 | > 10 | 104 | 99.1 | 107 | 109 | 92.1 | 98.3 | 92.1 | 102 | 96.8 | 102 | 102 | 95.4 | 101 | 94.2 | 96.8 | 94.7 | 97.1 | 100 | 108 | 101 | 99 | 97.5 | 94.8 | 104 | 97.2 | 0 | 0 | 0 | 0 | 0 |
| CONC(=N)c1ccc(-c2ccc(-c3ccc(C(=N)NOC)cc3)o2)cc1 [pafuramidine] | > 10 | > 10 | > 10 | > 10 | > 10 | 94.4 | 106 | 99.2 | 92.9 | 110 | 98.3 | 97.4 | 95.4 | 96 | 98.5 | 99.1 | 99.8 | 96.9 | 102 | 98.9 | 92.3 | 97 | 92.5 | 97.5 | 87.9 | 98.2 | 97.5 | 96 | 93.9 | 107 | 0 | 0 | 0 | 0 | 0 |
| Nc1nc(O)c2ncn(CCC(CO)CO)c2n1 [penciclovir] | > 10 | > 10 | > 10 | > 10 | > 10 | 89.8 | 94.3 | 101 | 94.6 | 102 | 102 | 90.8 | 92 | 94.1 | 99.5 | 99.3 | 95.9 | 93.9 | 101 | 104 | 98.7 | 109 | 102 | 103 | 102 | 100 | 94.3 | 90 | 95.1 | 102 | 0 | 0 | 0 | 0 | 0 |
| O=C(CCc1ccc(O)cc1)c1c(O)cc(O)cc1O [phloretin] | > 10 | > 10 | > 10 | > 10 | > 10 | 107 | 98.3 | 94.2 | 99.1 | 99.4 | 104 | 93.2 | 98.7 | 98 | 91.3 | 95.8 | 100 | 103 | 96.8 | 101 | 92.1 | 101 | 97.5 | 101 | 98.6 | 105 | 102 | 99.9 | 103 | 95.1 | 0 | 0 | 0 | 0 | 0 |
| CC(C)[C@H](CO)Nc1nc(Nc2cccc(Cl)c2)c2ncn(C(C)C)c2n1 [purvalanol-A] | > 10 | > 10 | > 10 | > 10 | > 10 | 90.8 | 96.8 | 100 | 94.8 | 87.2 | 102 | 109 | 96.5 | 102 | 91.4 | 97.4 | 105 | 95.5 | 99 | 86.4 | 91.6 | 103 | 93.4 | 94.2 | 83.1 | 100 | 97.4 | 93.7 | 95.5 | 77.3 | 0.4 | 0 | 0.2 | 0.4 | 1.4 |
| O=C(NC1CCNCC1)[C@@H]1CC[C@@H]2CN1C(=O)N2OS(=O)(=O)O [relebactam] | > 10 | > 10 | > 10 | > 10 | > 10 | 93.9 | 109 | 94.1 | 108 | 95.3 | 110 | 103 | 99 | 107 | 98.2 | 102 | 107 | 103 | 101 | 100 | 92.6 | 108 | 89.4 | 94.6 | 90 | 99.1 | 97.2 | 97.9 | 102 | 104 | 0 | 0 | 0 | 0.3 | 0 |
| O=C(NCCCN1CCOCC1)c1cnn2c(-c3ccccc3)cc(-c3ccccc3)nc12 [reversan] | > 10 | > 10 | > 10 | > 10 | > 10 | 91.7 | 95.6 | 92.6 | 102 | 93.3 | 105 | 101 | 107 | 91.8 | 75.4 | 103 | 103 | 97.5 | 99.5 | 85.8 | 104 | 97 | 92.2 | 88.8 | 75.6 | 97.8 | 100 | 103 | 103 | 82.6 | 0 | 2 | 0.2 | 1.8 | 0.3 |
| CO[C@H]1/C=C/O[C@@]2(C)Oc3c(C)c(O)c4c(O)c(c5c(nc6cc(C)ccn65)c4c3C2=O)NC(=O)/C(C)=C\C=C\[C@H](C)[C@H](O)[C@@H](C)[C@@H](O)[C@@H](C)[C@H](OC(C)=O)[C@@H]1C [rifaximin] | > 10 | > 10 | > 10 | > 10 | > 10 | 110 | 95.3 | 102 | 104 | 106 | 94.7 | 95 | 89 | 101 | 94.6 | 96.7 | 99.3 | 94.6 | 93.3 | 96.4 | 137 | 112 | 87 | 98.2 | 96.4 | 106 | 93.6 | 108 | 106 | 117 | 0 | 0 | 0 | 0 | 0 |
| CN(CCOc1ccc(CC2SC(=O)NC2=O)cc1)c1ccccn1 (stereo not given) [rosiglitazone] | > 10 | > 10 | > 10 | > 10 | > 10 | 94.9 | 97.1 | 93.5 | 96.5 | 89.5 | 105 | 96.2 | 94.6 | 102 | 108 | 96.7 | 97.2 | 98.1 | 98.5 | 100 | 99.9 | 93 | 93.9 | 81.9 | 90.7 | 96.3 | 95.2 | 88.3 | 82.1 | 81.3 | 0 | 0 | 0 | 0.9 | 2.8 |
| NCC(CS(=O)(=O)O)c1ccc(Cl)cc1 (stereo not given) [saclofen] | > 10 | > 10 | > 10 | > 10 | > 10 | 107 | 107 | 105 | 105 | 98 | 96.2 | 91.9 | 94.8 | 86.9 | 105 | 93.6 | 99.7 | 95.3 | 96.9 | 104 | 100 | 101 | 91 | 88.7 | 95.5 | 106 | 98.6 | 103 | 101 | 103 | 0 | 0 | 0 | 0.6 | 0 |
| COC(=O)[C@@H]1C[C@H](OC(C)=O)C(=O)[C@H]2[C@@]1(C)CC[C@H]1C(=O)O[C@H](c3ccoc3)C[C@]21C [salvinorin-A] | > 10 | > 10 | > 10 | > 10 | > 10 | 88.2 | 106 | 105 | 98.2 | 101 | 110 | 91.3 | 97.5 | 107 | 109 | 97.9 | 101 | 93.1 | 97 | 97.3 | 112 | 112 | 101 | 101 | 97.2 | 98.5 | 108 | 106 | 91.8 | 98.4 | 0 | 0 | 0 | 0 | 0 |
| C[n+]1cc2c3c(ccc2c2ccc4cc5c(cc4c21)OCO5)OCO3 [sanguinarium-chloride] | 1.29 | 2.42 | 2.52 | 1.82 | 1.58 | 93 | 103 | 96.7 | 64.3 | 0 | 101 | 96.4 | 83.9 | 91.1 | 0.9 | 96.6 | 98.5 | 97 | 92.1 | 0.2 | 85.8 | 103 | 73.1 | 82.4 | 2.2 | 109 | 99.8 | 105 | 75.9 | 0.1 | 10.3 | 6.9 | 6.8 | 8.3 | 9.2 |
